Measurements from US20200022957A1, “KINASE AND UBIQUITIN LIGASE INHIBITORS AND USES THEREOF” (ALDA S.R.L., priority 2015, published 2020).
Peptide text beside a SMILES is read from it. * marks the point of attachment. Cbz = O=C(OCc1ccccc1)*

Tests used:
[1] = test system: F508del-CFTR; test: F508del-CFTR proteostasis by western blotting (ER band B / Golgi-processed band C) in CFBE cells; type: cell-based, human; conditions: 48 h, concentration series
Experimental: Cells were washed three times in ice-cold Dulbecco's phosphate-buffered saline, and lysed in RIPA buffer (150 mM NaCl, 1% Triton X-100, 0.5% deoxycholic acid, 0.1% SDS, 20 mM Tris-HCl, pH 7.4), supplemented with protease inhibitor cocktail and phosphatase inhibitors. The lysates were clarified by centrifugation at 15000×g for 15 min, and the supernatants were resolved by SDS-PAGE. BCA Protein Assay kit (Pierce) was used to quantitate protein levels before loading. The western blots were decorated with appropriate antibodies and developed using ECL. The blots were then exposed to x-ray films and exposure time was varied to obtain optimal signal. The x-ray films were then scanned and the bands were quantitated using ImageJ gel-analysis tool. The protein concentration and the exposures used for quantitation of the blots were optimized to be in a linear range of detection.
Inventors then turned to experimental validation of the role of the CORE genes in the regulation of F508del-CFTR proteostasis. Experiments were carried out using a characterised biochemical assay that detects both the amount of core-glycosylated CFTR trapped in the ER (band B with Western blotting) and the amount of CFTR fully glycosylated in the Golgi (most of which presumably resides at the PM; band C with Western blotting).

[2] = test system: ATP7BH1069Q; test: Immunofluorescence assay for correction of ATP7B: cells with ATP7BH1069Q signal in the ER, HeLa cells; type: cell-based, human; conditions: 24 h, SB202190 5 μM, VX-745 1 μM, SP600125 2 μM, Oxozeaenol 5 μM, 100 μM CuSO4 2 h
Experimental: (A) HeLa cells were infected with Ad-ATP7BWT-GFP (Chesi et al., 2016) or Ad-ATP7BH1069Q-GFP, incubated overnight with 200 μM BCS, and incubated for an additional 2 h with 100 μM CuSO4. In response to Cu, ATP7BWT traffics from the Golgi to PM and vesicle, while ATP7BH1069Q are retained within the ER under high Cu conditions. Addition of p38 inhibitor SB202190 (5 μM), VX-745(1 μM), JNK inhibitor SP600125 (2 μM) and Oxozeaenol (5 μM) (as indicated in corresponding panels) to the cells 24 h corrects ATP7BH1069Q from the ER to PM and vesicles (arrows) (B) Cells were treated as in panel A. The percentage of the cells (average±SD, n=50 fields) with an ATP7B signal in the ER, were calculated.
Cells were fixed with 4% paraformaldehyde in 0.2 M HEPES for 10 mins, permeabilized, labeled with primary and secondary antibodies, and examined with a ZEISS LSM 700 confocal microscope equipped with a 63×1.4 numerical aperture oil objective. The cells were scored based on the disappearance of ATP7B from the ER.

[3] = test system: JNK; test: phospho-c-jun levels by western blotting as a measure of JNK inhibition in CFBE cells; type: cell-based, human; conditions: 24 h, oxozeaenol 5 μM
Experimental: A. CFBE cells were treated with indicated JNK inhibitors for 24 h and processed for western blotting. The levels of phospho-c-jun as a measure of JNK inhibition was monitored. […] B. CFBE cells were treated with TAK1 or MLK3 siRNA as indicated and changes in F508del-CFTR proteostasis were monitored by western blotting.
C. CFBE cells were treated with 5 μM oxozeaenol for 48 h, or with MLK3 siRNA, or with both, and the correction of the F508del-CFTR folding/trafficking defect was monitored by changes in the levels of band C. There was no additive effect observed with the combination of MLK3 downregulation and oxozeaenol treatment. The quantitated band C levels are expressed as mean±SD (n>3). D. CFBE cells were treated with 5 μM oxozeaenol for 24 h, and the activity of the JNK pathway was measured by western blotting for phospho c-jun levels and F508del-CFTR. […] E. CFBE cells were treated with flunarizine (at concentrations 6.25-50 μM) targeting the CAMKK2 pathway for 48 h and the effect on F508del-CFTR proteostasis measured by western blotting. Treatment with flunarizine increased the levels of band C of F508del-CFTR. […] F. CFBE cells transiently transfected with the P-glycoprotein mutant (P-gp DY490), the NCC mutant (R948X), or the hERG mutant (G601S) were treated with JNKi II for 24 h, and the effect of the drug on their proteostasis monitored by western blotting. […]

[4] = test system: F508del-CFTR; conditions: primary human bronchial epithelial cells (Trzcinska-Daneluti et al. 2012); cited from earlier work
[5] = test system: NCC mutant (R948X); test: Proteostasis of NCC mutant in transfected CFBE cells (western blotting); type: cell-based
Experimental: (§1) C. CFBE cells were treated with 5 μM oxozeaenol for 48 h, or with MLK3 siRNA, or with both, and the correction of the F508del-CFTR folding/trafficking defect was monitored by changes in the levels of band C. There was no additive effect observed with the combination of MLK3 downregulation and oxozeaenol treatment. The quantitated band C levels are expressed as mean±SD (n>3). D. CFBE cells were treated with 5 μM oxozeaenol for 24 h, and the activity of the JNK pathway was measured by western blotting for phospho c-jun levels and F508del-CFTR. […] E. CFBE cells were treated with flunarizine (at concentrations 6.25-50 μM) targeting the CAMKK2 pathway for 48 h and the effect on F508del-CFTR proteostasis measured by western blotting. Treatment with flunarizine increased the levels of band C of F508del-CFTR. […] F. CFBE cells transiently transfected with the P-glycoprotein mutant (P-gp DY490), the NCC mutant (R948X), or the hERG mutant (G601S) were treated with JNKi II for 24 h, and the effect of the drug on their proteostasis monitored by western blotting.
(§2) The level of correction obtained with these inhibitors is higher than the effects of the corrector compounds from which the pathways were deduced (FIG. 3A), and similar to, or higher than, the effects of VX-809. […]

[6] = test system: hERG mutant (G601S); test: Proteostasis of hERG mutant in transfected CFBE cells (western blotting); type: cell-based, human
Experimental: as §1, §2

[7] = test system: ATP7B R778L; test: ATP7B R778L translocation from ER to Golgi in HeLa cells (fluorescence microscopy); type: cell-based, human; conditions: JNKi II 5 μM, 48 h, fraction of protein in Golgi by fluorescence microscopy, DMSO control 12
From the text: Inventors next examined the effects of the MLK3 pathway inhibition on the proteostasis of other conformational disease mutants. Inventors transfected CFBE (and HeLa) cells with different conformational mutants (i.e., Sodium-chloride symporter [NCC, [MUT] mutant]; P-glycoprotein, [P-gp, [MUT] and DY490 mutants]; human Ether-a-go-go-Related Gene [hERG, [MUT] mutant]; Wilson's disease associated protein [ATP7B, [MUT] and [MUT] mutants]) and then treated cells with JNKi II and monitored these proteins by assessing changes in their glycosylation patterns (NCC, P-gp, hERG mutants) or in their intracellular movement from the ER to the Golgi complex (ATP7B mutants). […] CFBE or HeLa cells (in case of ATP7B) were transfected with constructs encoding the indicated mutant proteins and treated with JNKi II for 48 h.

[8] = test system: ATP7B H1069Q; test: Morphological assay of ATP7B H1069Q exit from ER to Golgi in HeLa cells (fluorescence microscopy); type: cell-based, human
Experimental: (§3) Cells were transfected with ATP7B-WT-GFP or ATP7B-H1069Q-GFP, incubated overnight with 200 μM BCS and/or drugs. Fixed cells were further labeled for TGN46 to mark and visualize the Golgi area under a confocal microscope. Under low copper conditions ATP7B-WT traffics to the Golgi from the ER, while ATP7B-H1069Q is retained within the ER. If the drug treatments induce the rescue of trafficking from the ER to the Golgi, the ATP7B-H1069Q-GFP fluorescence in the Golgi area increases. This is measured by quantifying (in 10 different microscopy fields in 100 cells) the increased in fluorescence of ATP7BWT-GFP or ATP7BH1069Q-GFP in the Golgi area (marked by TGN46) and normalizing this value to total cell fluorescence
CFBE or HeLa cells (in case of ATP7B) were transfected with constructs encoding the indicated mutant proteins and treated with JNKi II for 48 h.

[9] = test system: P-glycoprotein mutant (P-gp DY490); test: Proteostasis of P-glycoprotein mutant in transfected CFBE cells (western blotting); type: cell-based
Experimental: as §1, §2

[10] = test system: ATP7BH1069Q; test: Copper estimation in HepG2 cells overexpressing ATP7BH1069Q; type: cell-based, human; conditions: 1 μM, 24 hours, 200 μM copper sulphate for the last 2 hours
Experimental: FIG. 14: The VX-745 and BIRB-796 correctors reduce Copper levels in cells expressing ATP7BH1069Q mutant. HepG2 cells overexpressing indicated ATP7B constructs were incubated with 1 μM each of VX-745, BIRB-796 for 24 hours, for the last 2 hours of incubation with the inhibitors 200 μM copper sulphate is added to the cells with or without 100 μM BCS (copper chelator) as indicated. Cells were incubated with HBSS for 3 hours before lysed and used for copper estimation. Fold change in copper normalized to control is plotted (n=4). Both VX-745 and BIRB-796 reduced Copper levels in ATP7BH1069Q expressing cells (BCS is used in the assay as a control for the sensitivity of the assay).
Cells are lysed in RIPA buffer (150 mM NaCl, 1% Triton X-100, 0.5% deoxycholic acid, 0.1% SDS, 20 mM Tris-HCl, pH 7.4). 500 μg of total protein lysate in 100 μl is taken for copper estimation using Copper assay kit (MAK127 sigma-aldrich) according to the manufacturer's protocol.
ATP7B protein functions in the excretion of copper out of cells and tissue. As ATP7B H1069Q trafficking to the plasma membrane is impaired, the cells cannot excrete the copper, which leads to higher level of intracellular copper. If the corrector drugs promote the correct localization of the mutant, then the copper should be excreted, leading to lower intracellular levels.

[11] = test system: ATP7B H1069Q; test: Traffic-based screening of ATP7B H1069Q-GFP rescue in HEPG2 cells; type: cell-based, human; conditions: HEPG2 cells expressing ATP7B H1069Q-GFP; 24 h
Experimental: (§4) Transiently ATP7B H1069Q-GFP expressing HeLa cells (A), HEPG2 cells and (C) human primary hepatocytes (E) treated with the inhibitors for 24 hours, cells are processed for immunofluorescence assay to measure the arrival of the ATP7B wt and H1069Q mutant from the ER to Golgi compartment. A, C, E) Normalized Golgi fluorescence of ATP7B is measured and plotted (n >50 cells). B, D, F) EC50 and recue effect (%) compared to the level ATP7B WT Golgi fluorescence calculated from (A), (C) and (E) respectively. […] All the inhibitor drugs except SB202190 are in clinical trial for treatment of various other diseases.
as §3, with “cell fluorescence […]” for “cell fluorescence”

[12] = test system: ATP7B H1069Q; test: Traffic-based screening of ATP7B H1069Q-GFP rescue in human primary hepatocytes; type: cell-based; conditions: human primary hepatocytes expressing ATP7B H1069Q-GFP; 24 h
Experimental: as §4
as §3, with “cell fluorescence […]” for “cell fluorescence”

[13] = test system: proteasome; test: Proteasome ZsProsensor-1 fluorescence in CFBE cells; type: cell-based, human; conditions: MG132 20 μg/ml for 3 h, positive control
Experimental: CFBE cells treated with MLK3 or JNK2 siRNA for 72 h were transfected with Proteasome ZsProsensor-1 for the final 24 h, and the levels Proteasome ZsProsensor-1 monitored by fluorescence microscopy. Treatment with MG132 (20 μg/ml for 3 h), a proteasomal inhibitor, was used as a positive control.

Compound: COc1cc(O)c2c(c1)/C=C/C[C@H](O)[C@H](O)C(=O)/C=C\C[C@H](C)OC2=O [Oxozeaenol, (5Z)-7-oxozeaenol]
- levels of band B and band C of F508del-CFTR [1]: markedly increased
- percentage of the cells exhibiting ATP7BH1069Q in the ER [2]: reduced
- phospho-c-jun levels [3]: reduced
- correction of the F508del-CFTR proteostasis defect [4]: effective

Compound: O=C1c2ccccc2-c2n[nH]c3cccc1c23 [JNKi II]
- levels of band B and band C of F508del-CFTR [1]: robust increases
- proteostasis of NCC mutant (R948X), levels of bands B and C ([5]; JNKi II 24 h): enhanced degradation
- Correction (% of wild type) ([5]; table row 'NCC G601S', JNKi II 5 μM, 48 h, protein processed by the Golgi, DMSO control 10): 9 % of wild type
- proteostasis of hERG mutant (G601S), levels of bands B and C ([6]; JNKi II 24 h): enhanced degradation
- Correction (% of wild type) ([6]; table row 'hERG R948X', JNKi II 5 μM, 48 h, protein processed by the Golgi, DMSO control 44): 24 % of wild type
- percentage of the cells exhibiting ATP7BH1069Q in the ER [2]: reduced
- Correction (% of wild type) [7]: 40 % of wild type
- Correction (% of wild type) ([8]; ATP7B H1069Q, JNKi II 5 μM, 48 h, HeLa cells, fraction of protein in Golgi by fluorescence microscopy, DMSO control 32): 80 % of wild type
- trafficking of P-gp DY490 out of the ER (Golgi-associated band C) ([9]; JNKi II 24 h): enhanced
- Correction (% of wild type) ([9]; P-Glycoprotein DY490, JNKi II 5 μM, 48 h, protein processed by the Golgi, DMSO control 24): 44 % of wild type

Compound: O=c1ncn2nc(Sc3ccc(F)cc3F)ccc2c1-c1c(Cl)cccc1Cl [VX-745]
- Copper levels in ATP7BH1069Q expressing cells [10]: reduced
- rescue of ATP7B H1069Q (ER to Golgi) [11]: rescue H1069Q potently
- percentage of the cells exhibiting ATP7BH1069Q in the ER [2]: reduced
- rescue of ATP7B H1069Q (ER to Golgi) [12]: rescue H1069Q potently

Compound: CC(C)C[C@@H](C=O)NC(=O)[C@H](CC(C)C)NC(=O)[C@H](CC(C)C)NC(=O)OCc1ccccc1 [MG132] (Cbz-Leu-Leu-Leu-aldehyde)
- fluorescence levels of ZsProsensor-1 compared to untreated cells [13]: increases

Compound: Cc1ccc(-n2nc(C(C)(C)C)cc2NC(=O)Nc2ccc(OCCN3CCOCC3)c3ccccc23)cc1 [BIRB-796]
- Copper levels in ATP7BH1069Q expressing cells [10]: reduced
- rescue of ATP7B H1069Q (ER to Golgi) [11]: rescue H1069Q potently
- rescue of ATP7B H1069Q localization (ER exit to the Golgi compartment) ([8]; HeLa cells expressing ATP7B H1069Q-GFP, 24 h): potently rescue
- rescue of ATP7B H1069Q (ER to Golgi) [12]: rescue H1069Q potently
